Data reported in ChEMBL document CHEMBL6109134, “Discovery of AMG 193, an MTA-Cooperative PRMT5 Inhibitor for the Treatment of MTAP-Deleted Cancers” (J Med Chem, 2025).
Values after ≈ are worked out from the molar mass of the structure shown.

Tests used:
[1] = Clearance in Sprague-Dawley rat at 0.5 mg/kg, iv; details: in vivo
[2] = Toxicity in athymic nude mouse xenografted with MTAP-deleted human BXPC-3 cells assessed as effect on body weight at 10 to 100 mg/kg, po administered once daily for 26 days; assay type: organism-based; details: in vivo, 624 h, dose 10-100 mg/kg, time 26 day
[3] = target: Cytochrome P450 2D6 (Homo sapiens, UniProt P10635); assay: Inhibition of CYP2D6 (unknown origin)
[4] = target: PRMT5/MEP50 complex (Homo sapiens, UniProt O14744)
Description: Inhibition of PRMT5/MEP50 (unknown origin) preincubated with compound for 24 hrs in presence of SAM and MTA followed by Histone H4 (1-21)-Lys(Biotin) peptide addition and measured after 2 hrs by MTase-Glo reagent based assay

[5] = Metabolic stability in human liver microsomes assessed as intrinsic clearance at 0.5 uM incubated for 40 mins in presence of NADPH; assay type: ADME, Microsome; details: read-out: CLH
[6] = Antitumor activity against MTAP-deleted human U-87 MG cells xenografted in female athymic nude mouse model assessed as tumor growth inhibition at 10 mg/kg, po administered once daily for 14 days and measured 24 hrs post last dose relative to control; assay type: functional, U-87MG ATCC; details: 360 h, time 15 day, read-out: TGI
[7] = Solubility of compound in Hcl buffer at pH 2.0
[8] = test system: human MDR1 (P-gp); assay: Efflux ratio of permeability across basolateral to apical side over apical to basolateral side in MDCK cells transfected with human MDR1 in absence of elacridar; details: dog
[9] = test system: HCT-116; assay: Antiproliferative activity against MTAP-deleted human HCT-116 cells assessed as effect on cell viability incubated for 6 days by Celltiter-Glo luminescent cell viability assay; assay type: functional, cell-based; details: HCT-116, 144 h
[10] = target: PRMT5/MEP50 complex (Homo sapiens) (UniProt O14744+Q9BQA1); assay: Inhibition of human PRMT5/MEP50 at 10 uM relative to control; assay type: protein-complex assay
[11] = target: DNA (cytosine-5)-methyltransferase 1 (Homo sapiens) (UniProt P26358); assay: Activation of human DNMT1 at 10 uM relative to control
[12] = Toxicity in male rat up to 75 mg/kg, po administered as single dose for 14 days; assay type: organism-based; details: in vivo, 336 h, time 14 day
[13] = Toxicity in female athymic nude mouse xenografted with MTAP-deleted human HCT-116 cells assessed as body weight change at 3 to 100 mg/kg, po administered once daily for 14 days; assay type: organism-based; details: in vivo, 336 h, dose 3-100 mg/kg, time 14 day
[14] = Protein binding in human plasma assessed as unbound fraction by ultracentrifugation
[15] = target: Protein arginine N-methyltransferase 5 (Homo sapiens) (UniProt O14744); assay: In vivo inhibition of PRMT5 in athymic nude mouse xenografted with human HCT-116 cells harboring wildtype MTAP assessed as decrease in SDMA level in tumor at 10 mg/kg, po administered once daily for 4 days and measured 4 hrs post last dose by ELISA relative to control; assay type: functional, organism-based; details: time 4.0 day
[16] = test system: BXPC-3; assay: Antitumor activity against MTAP-deleted human BXPC-3 cells xenografted in athymic nude mouse model assessed as tumor growth inhibition at 100 mg/kg, po administered once daily for 26 days and measured 24 hrs post last dose relative to control; assay type: functional; details: BXPC-3, 648 h, time 27 day, read-out: TGI
[17] = Unbound CSF-to-plasma concentration ratio in female Sprague-Dawley rat at 75 mg/kg, po administered as single dose; assay type: ADME, organism-based

DNA (cytosine-5)-methyltransferase 1 (Homo sapiens), sequence (P26358 whole entry): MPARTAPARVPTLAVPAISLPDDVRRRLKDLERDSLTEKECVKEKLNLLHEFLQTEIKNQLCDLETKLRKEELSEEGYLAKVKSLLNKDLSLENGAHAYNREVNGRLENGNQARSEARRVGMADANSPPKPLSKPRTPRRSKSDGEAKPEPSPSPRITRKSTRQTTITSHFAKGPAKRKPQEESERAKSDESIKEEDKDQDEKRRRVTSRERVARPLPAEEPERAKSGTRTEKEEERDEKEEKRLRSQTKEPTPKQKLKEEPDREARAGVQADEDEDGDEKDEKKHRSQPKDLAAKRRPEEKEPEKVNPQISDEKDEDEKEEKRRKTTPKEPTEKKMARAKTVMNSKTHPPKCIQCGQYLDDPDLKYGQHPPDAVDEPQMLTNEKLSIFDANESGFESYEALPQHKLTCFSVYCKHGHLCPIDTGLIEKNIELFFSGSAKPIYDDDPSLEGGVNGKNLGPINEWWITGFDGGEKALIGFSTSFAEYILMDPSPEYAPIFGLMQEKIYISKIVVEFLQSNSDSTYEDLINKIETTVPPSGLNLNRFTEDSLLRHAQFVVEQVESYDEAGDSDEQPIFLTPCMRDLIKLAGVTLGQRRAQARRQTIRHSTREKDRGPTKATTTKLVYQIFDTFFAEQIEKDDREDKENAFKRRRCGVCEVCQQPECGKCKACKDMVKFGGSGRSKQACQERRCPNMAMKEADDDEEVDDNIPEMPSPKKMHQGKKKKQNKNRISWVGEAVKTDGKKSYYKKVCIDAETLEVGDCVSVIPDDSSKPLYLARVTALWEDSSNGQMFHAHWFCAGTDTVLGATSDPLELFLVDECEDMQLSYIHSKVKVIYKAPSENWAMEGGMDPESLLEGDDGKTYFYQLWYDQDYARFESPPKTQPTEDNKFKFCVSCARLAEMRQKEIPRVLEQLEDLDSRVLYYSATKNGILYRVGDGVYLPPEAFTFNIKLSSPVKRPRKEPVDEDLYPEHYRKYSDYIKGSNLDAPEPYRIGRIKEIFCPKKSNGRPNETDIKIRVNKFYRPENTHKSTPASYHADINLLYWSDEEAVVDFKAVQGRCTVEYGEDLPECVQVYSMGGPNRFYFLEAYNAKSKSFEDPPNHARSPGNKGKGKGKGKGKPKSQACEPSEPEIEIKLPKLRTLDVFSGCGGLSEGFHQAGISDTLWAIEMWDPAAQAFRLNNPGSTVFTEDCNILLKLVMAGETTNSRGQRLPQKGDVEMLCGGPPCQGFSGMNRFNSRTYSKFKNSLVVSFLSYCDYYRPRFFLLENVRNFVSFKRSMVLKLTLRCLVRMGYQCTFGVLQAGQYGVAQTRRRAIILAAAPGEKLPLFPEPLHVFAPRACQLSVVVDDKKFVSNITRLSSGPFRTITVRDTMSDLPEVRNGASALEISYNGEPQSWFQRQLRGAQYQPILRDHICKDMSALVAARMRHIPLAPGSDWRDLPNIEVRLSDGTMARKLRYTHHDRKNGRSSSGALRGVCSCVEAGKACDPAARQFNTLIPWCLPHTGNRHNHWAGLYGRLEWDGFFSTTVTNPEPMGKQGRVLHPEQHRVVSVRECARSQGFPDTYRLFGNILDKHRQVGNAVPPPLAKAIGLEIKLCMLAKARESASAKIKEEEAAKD
PRMT5/MEP50 complex, sequence (O14744 whole entry): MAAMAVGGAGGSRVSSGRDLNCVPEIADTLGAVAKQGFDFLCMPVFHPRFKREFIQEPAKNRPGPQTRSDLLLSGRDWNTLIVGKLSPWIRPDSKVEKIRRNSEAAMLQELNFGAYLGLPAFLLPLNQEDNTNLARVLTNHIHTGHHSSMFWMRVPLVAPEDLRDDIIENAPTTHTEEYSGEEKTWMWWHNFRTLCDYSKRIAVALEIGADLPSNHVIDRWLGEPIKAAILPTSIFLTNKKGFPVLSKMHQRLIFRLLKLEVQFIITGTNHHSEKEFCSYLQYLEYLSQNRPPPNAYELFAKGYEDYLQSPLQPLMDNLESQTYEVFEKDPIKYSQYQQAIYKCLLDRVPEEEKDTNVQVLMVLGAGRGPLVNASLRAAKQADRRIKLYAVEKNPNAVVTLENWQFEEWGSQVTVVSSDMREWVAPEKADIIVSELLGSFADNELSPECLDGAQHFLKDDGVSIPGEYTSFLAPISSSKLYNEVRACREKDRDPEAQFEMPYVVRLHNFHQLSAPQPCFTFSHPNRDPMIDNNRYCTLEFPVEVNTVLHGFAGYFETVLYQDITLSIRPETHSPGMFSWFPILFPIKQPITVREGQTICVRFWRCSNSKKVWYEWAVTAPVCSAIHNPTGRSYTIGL
PRMT5/MEP50 complex, sequence (Q9BQA1 whole entry, further chain): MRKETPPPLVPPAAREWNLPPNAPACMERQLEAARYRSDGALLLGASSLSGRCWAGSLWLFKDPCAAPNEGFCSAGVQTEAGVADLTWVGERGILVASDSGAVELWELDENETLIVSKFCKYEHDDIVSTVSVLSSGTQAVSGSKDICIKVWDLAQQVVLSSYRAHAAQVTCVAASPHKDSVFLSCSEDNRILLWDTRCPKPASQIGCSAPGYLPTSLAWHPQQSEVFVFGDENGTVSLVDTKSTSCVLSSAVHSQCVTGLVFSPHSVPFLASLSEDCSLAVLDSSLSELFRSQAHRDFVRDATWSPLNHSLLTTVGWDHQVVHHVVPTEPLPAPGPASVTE
Protein arginine N-methyltransferase 5 (Homo sapiens), sequence (O14744 whole entry): as the sequence (O14744 whole entry) above
Cytochrome P450 2D6, sequence (P10635 whole entry): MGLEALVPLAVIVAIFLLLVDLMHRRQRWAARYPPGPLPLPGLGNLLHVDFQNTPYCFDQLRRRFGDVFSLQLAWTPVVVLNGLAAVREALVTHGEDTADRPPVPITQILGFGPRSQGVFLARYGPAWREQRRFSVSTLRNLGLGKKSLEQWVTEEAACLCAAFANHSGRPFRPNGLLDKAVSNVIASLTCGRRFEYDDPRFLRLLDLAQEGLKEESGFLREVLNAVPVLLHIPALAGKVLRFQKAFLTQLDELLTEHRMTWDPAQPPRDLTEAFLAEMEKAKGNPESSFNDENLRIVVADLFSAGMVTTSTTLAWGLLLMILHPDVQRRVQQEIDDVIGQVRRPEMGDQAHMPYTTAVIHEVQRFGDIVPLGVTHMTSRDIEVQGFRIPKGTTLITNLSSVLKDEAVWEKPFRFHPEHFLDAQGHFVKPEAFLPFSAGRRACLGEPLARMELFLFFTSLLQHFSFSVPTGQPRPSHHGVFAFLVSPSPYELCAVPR

clearance [1]: 28.3 mL/min/kg | IC50 [3]: 117000 nM | Ki [4]: < 0.1 nM | microsomal CLint at 0.5 µM [5]: 24 µL/min/mg | solubility [7]: 492 µM (≈ 219 µg/mL) | efflux ratio [8]: 3 | IC50 [9]: 102 nM | inhibition [10]: 84% | Activity [11]: 32% | fraction unbound [14]: 0.11 | inhibition [15]: 32% | Kp uu [17]: 0.2
SMILES: Nc1nc2cnc(C(=O)N3CCOC[C@@H]3c3ccc(C(F)(F)F)cc3)cc2c2c1COC2
Activity [2]: Non-toxic | inhibition in vivo at 10 mg/kg [6]: 42% | Activity [12]: Non-toxic | Activity [13]: Non-toxic | inhibition in vivo at 100 mg/kg [16]: 96%
